The values below come from patent US20260167632A1, “NICOTINAMIDE DERIVATIVES FOR USE IN TREATING DISORDERS ASSOCIATED WITH KCNK13 ACTIVITY” (Cerevance, Inc., priority 2022, published 2026).

In this experiment the target is T1, human KCNK13 (Homo sapiens, UniProt Q9HB14).
T1 construct: expressed in transfected cells
T1 sequence (Q9HB14 1-408): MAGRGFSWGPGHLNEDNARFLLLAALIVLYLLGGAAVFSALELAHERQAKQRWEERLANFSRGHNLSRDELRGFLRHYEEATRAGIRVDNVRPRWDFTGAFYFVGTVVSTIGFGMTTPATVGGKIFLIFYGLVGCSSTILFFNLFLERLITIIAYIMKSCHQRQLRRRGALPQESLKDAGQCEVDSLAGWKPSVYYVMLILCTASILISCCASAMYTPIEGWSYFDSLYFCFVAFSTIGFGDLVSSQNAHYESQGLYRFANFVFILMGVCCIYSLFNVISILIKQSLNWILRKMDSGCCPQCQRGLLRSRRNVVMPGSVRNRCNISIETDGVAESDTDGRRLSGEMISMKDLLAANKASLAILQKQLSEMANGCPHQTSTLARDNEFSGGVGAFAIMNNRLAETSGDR
The experiment is described as follows: KCNK13 antagonist activity, thallium flux FLIPR assay in HEK 293 cells stably expressing human KCNK13. The experiment is classed as cell-based. Particulars: HEK 293 cells stably expressing human KCNK13, Tl+ sensitive dye, compound 15 min before thallium sulfate, ten point curves; read-out: hKCNK13 IC50. How it is done:
4. Biological Efficacy of Compounds of the Invention
KCNK13 antagonist activity was determined by measuring changes in intracellular Thallium (Tl^+) concentrations using a Tl^+ sensitive fluorescent dye. The changes in fluorescent signal were monitored by Fluorescent Imaging Plate Reader (FLIPR™) technology available from Molecular Devices, LLC, US. KCNK13 mediated increases in intracellular Tl^+ concentration were readily detected by addition of a thallium sulfate Stimulus. 24 hours prior to the assay, human embryonic kidney 293 cells (HEK 293 cells) stably expressing human KCNK13 were seeded in cell culture medium in PDL coated black, clear-bottom 384-well plates (commercially available from Corning Inc., 356663) and grown overnight at 37° C., […]. On the day of the assay, cell culture media was removed and cells were loaded with potassium dye (commercially sold by Molecular Devices, LLC, US, R8222) for 1 hour at room temperature in the dark. Test compounds (at 10 point half log concentration response curves from 100 µM) were added to cells for 15 minutes prior to the addition of thallium sulfate to all wells. The IC50 values were determined from ten point concentration response curves. Curves were generated using the average of two wells for each data point.
Take `CN(Cc1cccc(Cl)c1)C(=O)c1cc(Cl)cnc1OC(F)F` [Example 84, 5-chloro-N-(3-chlorobenzyl)-2-(difluoromethoxy)-N-methylnicotinamide]: the half-maximal inhibitory concentration (IC50) was at most 100 nM.

Take `COc1ncc(F)cc1C(=O)N1CCCCC1c1cccc(F)c1` (stereo not drawn) [Example 4, (5-fluoro-2-methoxypyridin-3-yl)(2-(3-fluorophenyl)piperidin-1-yl)methanone]: the IC50 was at most 1000 nM.

In the case of `COc1cccc(CN(C)C(=O)c2cc(Cl)cnc2OC(F)F)c1` [Example 81, 5-chloro-2-(difluoromethoxy)-N-(3-methoxybenzyl)-N-methylnicotinamide], the 50% inhibitory concentration (IC50) was at most 200 nM.

As to `CN(Cc1ccc(F)cc1F)C(=O)c1cc(Cl)cnc1OC(F)F` [Example 100, 5-chloro-N-(2,4-difluorobenzyl)-2-(difluoromethoxy)-N-methylnicotinamide], the IC50 was at most 100 nM.

For `CN(Cc1ccc(F)cc1F)C(=O)c1cc(F)cnc1OC(F)F` [Example 94, N-(2,4-difluorobenzyl)-2-(difluoromethoxy)-5-fluoro-N-methylnicotinamide], the IC50 was at most 100 nM.

On to `COc1ncc(F)cc1C(=O)N(C)C1CCOc2ccccc21` (single isomer, unassigned) [Example 14, N-(chroman-4-yl)-5-fluoro-2-methoxy-N-methylnicotinamide], for which the IC50 was at most 500 nM.

`COc1ncc(Cl)cc1C(=O)N(C)Cc1c(Cl)cccc1Cl` [Example 118, 5-chloro-N-(2,6-dichlorobenzyl)-2-methoxy-N-methylnicotinamide]: the IC50 was at most 200 nM.

Consider `COc1ncc(F)cc1C(=O)N(C)C1CCOc2c(F)cccc21` (single isomer, unassigned) [Example 30, 5-fluoro-N-(8-fluorochroman-4-yl)-2-methoxy-N-methylnicotinamide], for which the IC50 was at most 500 nM.

`CN(C(=O)c1cc(F)cnc1OC(F)F)C1COc2c(F)cccc21` (stereo not drawn) [Example 75, 2-(difluoromethoxy)-5-fluoro-N-(7-fluoro-2,3-dihydrobenzofuran-3-yl)-N-methylnicotinamide]: the 50% inhibitory concentration (IC50) is at most 500 nM.

Turning to `COc1ncc(Cl)cc1C(=O)N(C)C1CCOc2cc(F)ccc21` (stereo not drawn) [Example 43, 5-chloro-N-(7-fluorochroman-4-yl)-2-methoxy-N-methylnicotinamide], the IC50 was at most 1000 nM.

For the compound `COc1ncc(F)cc1C(=O)N(C)C(C)c1ccc(F)cc1C#N` (single isomer, unassigned) [Example 65, N-(1-(2-cyano-4-fluorophenyl)ethyl)-5-fluoro-2-methoxy-N-methylnicotinamide], the IC50 was at most 1000 nM.

Regarding `CN(Cc1cccc(F)c1F)S(=O)(=O)c1cc(F)cnc1OC(F)F` [Example 107, N-(2,3-difluorobenzyl)-2-(difluoromethoxy)-5-fluoro-N-methylpyridine-3-sulfonamide], the IC50 was at most 100 nM.

As for `COc1ncc(F)cc1C(=O)N(C)C(C)c1ccc(F)cc1F` (single isomer, unassigned) [Example 69, N-(1-(2,4-difluorophenyl)ethyl)-5-fluoro-2-methoxy-N-methylnicotinamide], the IC50 was at most 200 nM.

In the case of `COc1ncc(Cl)cc1C(=O)N(C)C(C)c1cc(F)ccc1C#N` (single isomer, unassigned) [Example 60, 5-chloro-N-(1-(2-cyano-5-fluorophenyl)ethyl)-2-methoxy-N-methylnicotinamide], the 50% inhibitory concentration (IC50) was at most 5000 nM.

As to `CCN(Cc1cccc(F)c1)C(=O)c1cc(Cl)cnc1OC` [Example 49, 5-chloro-N-ethyl-N-(3-fluorobenzyl)-2-methoxynicotinamide], the IC50 is at most 1000 nM.

`C[C@H](c1cccc(F)c1)N(C)S(=O)(=O)c1cc(F)cnc1OC(F)F` [Example 104, (R)-2-(difluoromethoxy)-5-fluoro-N-(i-(3-fluorophenyl)ethyl)-N-methylpyridine-3-sulfonamide]: the IC50 was at most 1000 nM.

Take `CC(c1cccc(F)c1)N(C)C(=O)c1cc(F)cnc1OC(F)F` (single isomer, unassigned) [Example 89, 2-(difluoromethoxy)-5-fluoro-N-(1-(3-fluorophenyl)ethyl)-N-methylnicotinamide]: the IC50 was at most 200 nM.

For the compound `CN(Cc1cccc(F)c1)S(=O)(=O)c1cc(Cl)cnc1OC(F)F` [Example 113, 5-chloro-2-(difluoromethoxy)-N-(3-fluorobenzyl)-N-methylpyridine-3-sulfonamide], the IC50 is at most 500 nM.

Take `COc1ncc(Cl)cc1C(=O)N(C)C1COc2ccccc21` (single isomer, unassigned) [Example 27, 5-chloro-N-(2,3-dihydrobenzofuran-3-yl)-2-methoxy-N-methylnicotinamide]: the IC50 was at most 500 nM.

As to `COc1ncc(Cl)cc1C(=O)N(C)C1CCOc2ccccc21` (single isomer, unassigned) [Example 18, 5-chloro-N-(chroman-4-yl)-2-methoxy-N-methylnicotinamide], the IC50 is at most 500 nM.

Turning to `CN(Cc1cccc(F)c1F)C(=O)c1cc(F)cnc1OC(F)F` [Example 93, N-(2,3-difluorobenzyl)-2-(difluoromethoxy)-5-fluoro-N-methylnicotinamide], the 50% inhibitory concentration (IC50) was at most 100 nM.

With `COc1ncc(F)cc1C(=O)N(C)Cc1cccc(F)c1` [Example 50, 5-fluoro-N-(3-fluorobenzyl)-2-methoxy-N-methylnicotinamide], the IC50 is at most 200 nM.

As for `CCN(Cc1ccccc1)C(=O)c1cc(Cl)cnc1OC` [Example 47, N-benzyl-5-chloro-N-ethyl-2-methoxynicotinamide], the IC50 is at most 1000 nM.

As to `COc1ncc(Cl)cc1C(=O)N(C)C(C)c1ccc(F)cc1C#N` (single isomer, unassigned) [Example 67, 5-chloro-N-(1-(2-cyano-4-fluorophenyl)ethyl)-2-methoxy-N-methylnicotinamide], the concentration for half-maximal inhibition (IC50) was at most 500 nM.

Turning to `CC(c1cccc(F)c1)N(C)C(=O)c1cc(F)cnc1OC(F)F` (single isomer, unassigned) [Example 88, 2-(difluoromethoxy)-5-fluoro-N-(1-(3-fluorophenyl)ethyl)-N-methylnicotinamide], the 50% inhibitory concentration (IC50) was at most 100 nM.

For `O=S(=O)(c1cc(F)cnc1OC(F)F)N1CCc2cc(F)cc(F)c2C1` [Example 116], the IC50 was at most 500 nM.

As for `COc1ncc(F)cc1C(=O)N(C)C1CCOc2c(F)cccc21` (single isomer, unassigned) [Example 31, 5-fluoro-N-(8-fluorochroman-4-yl)-2-methoxy-N-methylnicotinamide], the concentration for half-maximal inhibition (IC50) was at most 1000 nM.

In the case of `Cc1cccc(CN(C)C(=O)c2cc(Cl)cnc2OC(F)F)c1` [Example 80, 5-chloro-2-(difluoromethoxy)-N-methyl-N-(3-methylbenzyl)nicotinamide], the IC50 is at most 100 nM.

For `COc1ncc(Cl)cc1C(=O)N(C)C1CCOc2ccccc21` (single isomer, unassigned) [Example 19, 5-chloro-N-(chroman-4-yl)-2-methoxy-N-methylnicotinamide], the 50% inhibitory concentration (IC50) is at most 500 nM.

Regarding `COc1ncc(Cl)cc1C(=O)N(C)C1CCc2ccc(C#N)cc21` (stereo not drawn) [Example 2, 5-chloro-N-(6-cyano-2,3-dihydro-1H-inden-1-yl)-2-methoxy-N-methylnicotinamide], the IC50 is at most 1000 nM.

In the case of `COc1ncc(Cl)cc1C(=O)N(C)C1CCc2ccc(F)cc21` (single isomer, unassigned) [Example 21, 5-chloro-N-(6-fluoro-2,3-dihydro-1H-inden-1-yl)-2-methoxy-N-methylnicotinamide], the IC50 was at most 200 nM.

On to `CN(C(=O)c1cc(F)cnc1OC(F)F)C1COc2ccccc21` (stereo not drawn) [Example 85, 2-(difluoromethoxy)-N-(2,3-dihydrobenzofuran-3-yl)-5-fluoro-N-methylnicotinamide], for which the IC50 was at most 200 nM.

Take `COc1ncc(F)cc1C(=O)N(C)Cc1ccccc1F` [Example 37, 5-fluoro-N-(2-fluorobenzyl)-2-methoxy-N-methylnicotinamide]: the IC50 was at most 200 nM.

In the case of `CN(C(=O)c1cc(F)cnc1OC(F)F)C1COc2cc(F)ccc21` (stereo not drawn) [Example 74, 2-(difluoromethoxy)-5-fluoro-N-(6-fluoro-2,3-dihydrobenzofuran-3-yl)-N-methylnicotinamide], the IC50 is at most 500 nM.

Regarding `COc1ncc(Cl)cc1C(=O)N(C)C1CCOc2c(F)cccc21` (single isomer, unassigned) [Example 28, 5-chloro-N-(8-fluorochroman-4-yl)-2-methoxy-N-methylnicotinamide], the IC50 was at most 500 nM.

`CN(Cc1cccc(OC(F)(F)F)c1)C(=O)c1cc(Cl)cnc1OC(F)F` [Example 99, 5-chloro-2-(difluoromethoxy)-N-methyl-N-(3-(trifluoromethoxy)benzyl)nicotinamide]: the IC50 was at most 1000 nM.
